Legend:
[1] = system: P. aeruginosa PA14; experiment: Bacterial polyP accumulation assay after phosphate starvation; assay type: cell-based, Pseudomonas aeruginosa
Procedure: P. aeruginosa polyP levels following nutrient deprivation in morpholinepropanesulfonic acid (MOPS) minimal medium were assessed as described previously ([8]), with slight variations. Briefly, overnight cultures were grown in 5 ml LB in the presence of inhibitor or DMSO as indicated. Cultures were centrifuged for 10 min at 3,900 rpm to pellet cells, which were then resuspended in MOPS minimal medium containing 100 μM phosphate and the indicated quantity of inhibitor or DMSO. Cultures were incubated at 37°C for 2 h to allow polyP accumulation and then subsequently pelleted, resuspended in guanidinium thiocyanate (GITC) lysis buffer, and boiled at 95°C for 5 min. PolyP was purified via silica spin column as described previously ([8]), with the exception of using 50 nM PPK2A instead of E. coli PPK to convert polyP to ATP. An Invitrogen ATP determination kit (ThermoFisher) was used per the manufacturer’s instructions for ATP quantification. Luminescence was recorded on a SpectraMax iD3 microplate reader (Molecular Devices).

[2] = system: P. aeruginosa PA14; experiment: Swimming motility assay; assay type: cell-based, Pseudomonas aeruginosa
Procedure: Swimming motility plates consisted of 0.3% (wt/vol) Bacto agar (Becton Dickinson) and 2.5% (wt/vol) LB (Miller; Bioshop). Where indicated, 100 μM compound or an equivalent volume of DMSO was added to the agar prior to pouring. Plates were stab inoculated with a pipette tip dipped in overnight LB culture. Plates were incubated in sealed Tupperware at 30°C for 18 h, and swimming diameter was imaged and measured electronically.

[3] = system: P. aeruginosa PA14; experiment: Bacterial growth kinetics (OD600); assay type: cell-based, Pseudomonas aeruginosa
Description: FIG 3 Gallein phenocopies ppk deletion to attenuate P. aeruginosa swimming motility. (A) Representative image of swimming motility. (B) Quantification of the effects of gallein treatment and ppk gene deletion on swimming motility. (C) PA14 growth kinetics in the presence and absence of gallein in lysogeny broth (equivalent in composition to swim plates, minus the agar). ns, P > 0.05; *, P < 0.05; **, P < 0.01; ***, P < 0.001 (two-way ANOVA, Tukey’s multiple-comparison test, n = 3). All data points are the average from triplicates; error bars are ±standard deviation.
Supplementary file : FIG S4 Growth curves of P. aeruginosa WT and ΔpolyP in M63 biofilm medium (A) and liquid killing C. elegans assay medium (B). Gallein, or an equivalent volume of DMSO, was added to a 100 μM final concentration. OD600 monitored in triplicate cultures grown in 96-well plates at 37°C following colony inoculation. Error bars ± standard deviation. Download FIG S4, TIF file, 2.5 MB.

[4] = system: HEK293T cells; experiment: HEK293T cytotoxicity assay, trypan blue; assay type: cell-based, human; conditions: concentrations up to 100 μM, 48 h incubation
Procedure: HEK293 cells were grown in Dulbecco’s modified Eagle’s medium supplemented with 10% fetal bovine serum at 5% CO2 and 37°C. Cells were grown until a confluent monolayer was formed in 12-well culture plates, at which point inhibitors or DMSO was added. After 48-h incubation, cells were detached with trypsin and percent viability was scored via a hemocytometer and trypan blue staining.

[5] = system: P. aeruginosa; experiment: C. elegans liquid killing (LK) infection assay; assay type: in vivo, Caenorhabditis elegans; conditions: 100 μM gallein
Procedure: Wild-type N2 C. elegans and the glp-4 conditionally sterile mutant strain were obtained from the Caenorhabditis Genetics Center. Liquid killing assays were conducted using glp-4 mutant worms as described previously ([35]), with the exception of survival being scored manually under a Zeiss light microscope instead of via Sytox Orange staining. Nematodes were scored as dead when they no longer moved when tapped. Solid killing was conducted using glp-4 as described previously ([34]), with the indicated concentration of inhibitor impregnated into the SK agar. Bacterial CFU accumulation in WT N2 worms was quantified as described previously ([56]). Briefly, age-synchronized embryos were spotted onto bacterium-seeded nematode growth medium (NGM) agar plates impregnated with inhibitor or DMSO. Embryos were incubated at 25°C for 3 days, after which point adult worms were harvested, washed, lysed, and enumerated for CFU.

[6] = target: T1, P. aeruginosa PPK2A (Pseudomonas aeruginosa, UniProt Q9I6Z1); experiment: PPK2A ADP phosphorylation by polyP (ATP synthesis), toluidine blue detection; assay type: biochemical; conditions: ATP synthesis from ADP and polyP; 275 nM enzyme; read-out: IC50 PPK2A
T1 construct: residues P9 to P289; MBP (N, cleaved yes); His tag (N, cleaved yes); made in house; host or cells: E. coli BL21(DE3)
Procedure: All IC50 and kinetic assay mixtures contained equimolar amounts (275 nM) of PPK to ensure valid comparison between different enzymes. PolyP synthesis activity (for PPK1 and PPK2B) was assayed using the reaction buffer and conditions described above. ATP concentration was varied as indicated for kinetic experiments. Curves were fit using GraphPad Prism V9.
Nucleotide phosphorylation activity of PPK2 enzymes was assayed in buffer containing 50 mM Tris-HCl, pH 7.5, 10 mM (NH4)2SO4, 10 mM MgCl2, 5 mM polyP45 (Sigma; in terms of individual Pi monomers), and nucleotide (ADP or AMP) at 5 mM for IC50 reactions or as indicated for kinetic experiments. Enzyme was added to a final concentration of 275 nM in 100-μl reaction volumes. One-hundred-microliter reaction mixtures were incubated at 37°C for 30 min, and then 5-μl aliquots were withdrawn and added to 1,000 μl of 6-mg/liter toluidine blue dissolved in 40 mM acetic acid to quench the reaction and quantify the polyP that remained. The A630/530 nm ratio was then recorded, and the values obtained were corrected by subtracting the corresponding blanks (all ingredients except enzyme). The amount of polyP consumed was calculated by subtracting the amount present after reaction from that present in the initial reaction mix, as calculated via a standard curve. Each monomer of Pi consumed from polyP equates to one nucleoside phosphorylated. Curves were fit using GraphPad Prism V9.

[7] = WT: DMSO control vs 100 µM gallein
[8] = Δppk1: DMSO control vs 100 µM gallein

T1 sequence (Q9I6Z1 68-348): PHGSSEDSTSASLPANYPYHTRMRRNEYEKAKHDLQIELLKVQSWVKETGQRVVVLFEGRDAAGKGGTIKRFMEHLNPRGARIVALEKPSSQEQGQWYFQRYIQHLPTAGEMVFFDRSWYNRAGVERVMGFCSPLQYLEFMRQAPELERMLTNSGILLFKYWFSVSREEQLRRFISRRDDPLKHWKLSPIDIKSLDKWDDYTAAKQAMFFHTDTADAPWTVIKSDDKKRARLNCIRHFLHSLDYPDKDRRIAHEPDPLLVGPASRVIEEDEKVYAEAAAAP

## O=C1OC2(c3ccccc31)c1ccc(O)c(O)c1Oc1c2ccc(O)c1O [RT4 (gallein), gallein]
[1]; WT, phosphate starvation medium, nonbactericidal amounts
  polyP levels: reduced wild-type (WT) polyP levels in a dose-dependent manner
[1]; [7]
  Bacterial polyP accumulation, Mean Diff.: 68.65
[1]; Δppk1, Δppk2A, Δppk2B, Δppk2C: DMSO control vs 100 µM gallein
  Bacterial polyP accumulation, Mean Diff.: 2.148
[1]; [8]
  Bacterial polyP accumulation, Mean Diff.: 29.11
[1]; Δppk1 strain
  polyP levels: significantly reduced polyP levels
[1]; Δppk1 Δppk2A Δppk2B Δppk2C (ΔpolyP) strain
  polyP levels: had no effect
[1]; Δppk2A Δppk2B Δppk2C strain
  polyP levels: reduced polyP in this strain to a similar extent as that in the WT
[1]; Δppk2A, Δppk2B, Δppk2C: DMSO control vs 100 µM gallein
  Bacterial polyP accumulation, Mean Diff.: 74.9
[2]; WT, 100 μM in agar
  flagellum-based swimming motility: faithfully reproduced in WT P. aeruginosa the defect in flagellum-based swimming motility observed in the ΔpolyP strain
[2]; [7]
  swimming motility, Mean Diff.: 2
[2]; Δppk1, 2a, 2b, 2c: DMSO control vs 100 µM gallein
  swimming motility, Mean Diff.: -0.1
[2]; [8]
  swimming motility, Mean Diff.: 1.05
[2]; Δppk2a, 2b, 2c: DMSO control vs 100 µM gallein
  swimming motility, Mean Diff.: 0.65
[3]; LK conditions, 100 μM
  growth kinetics: near-WT growth kinetics
[3]; biofilm assay conditions (M63 medium), 100 μM
  planktonic growth rate: did not affect the planktonic growth rate
[3]; lysogeny broth
  bacterial growth kinetics: did not affect bacterial growth kinetics
[4]
  cytotoxicity: noncytotoxic
[5]
  C. elegans survival: significantly improved survival rates
[6]
  IC50: 16 ± 3 µM
